Experimental findings from patent US12084442B2, “Naphthyridinone derivatives for the treatment of a disease or disorder” (Novartis AG, priority 2021, dated 2024) are described below.

Data set [1] is described as follows: Pharmacokinetic properties in rats (IV and PO, whole blood LC-MS/MS). It counts as in vivo, Spargue Dawley/CD, male. The settings on record: for Rat AUC0-24 h 3 mg/kg: 3 mg/kg PO, suspension; for Rat AUC0-24 h 3 mg/kg / clearance: whole blood; for clearance: male, Sprague Dawley/CD, rat, IV dosing (0.3-1 mg/kg), CL = Dose/AUCinf; for Rat F: oral bioavailability, PO 3 mg/kg vs IV. As for the experimental part: The pharmacokinetic properties of the compounds in rats were assessed by the following in vivo studies as described below.
At least four days before first drug administration, the rats (250-350 g) were anesthetized and, under aseptic conditions, catheters were surgically implanted into the left and right jugular veins (one for blood collection and the other one for intravenous injection). The catheters were exteriorized and fixed at the neck. For analgesic treatment, animals received analgesics before surgery and subsequently twice at appropriate times after surgery. The freely-moving animals equipped with catheters are kept individually in Macrolon cages, with free access to food and water throughout the experiment. After a recovery phase of at least 4 days, a single test compound was administered intravenously or orally, based upon the individual body weights.
The test articles were administered as solution in NMP:PEG 200 (10:90 v/v). Test articles where no solution can be obtained were rejected and not used in discrete or cassette dosing.
The test article were administered as suspension in MC:Tween 80:water (0.5:0.1:99.4 w/v/v).
The test article was administered as solution and as a bolus injection or as short I.V. infusion (30 seconds) via the left jugular vein catheter to conscious rats. The dose volume was 0.5 mL/kg body weight.
The test article was administered as a solution or suspension into the esophagus via a gavage tube to conscious rats. The dose volume was 5 mL/kg body weight. The exact start time of dosing and exact dose volume was noted.
Blood samples (20 μL) were collected from the right jugular vein catheter of cannulated animals (if JV catheter becomes non patent during the PK experiment (i.e., after dosing), blood can exceptionally be collected by tail vein puncture but it must be clearly specified into the in-life observations and data study rep) in tubes containing 10% of blood of 2% W/V K2 EDTA (2.0 mg/mL) at the different time intervals. Blood was collected following IV dosing at 0.083, 0.25, 0.5, 1, 2, 4, 7 and 24 h post dose. Blood was collected following PO dosing: 0.25, 0.5, 1, 2, 4, 7 and 24 h post dose.
The concentrations of compounds in whole blood were quantified using a liquid chromatography/mass spectrometry (LC-MS/MS) assay. 20 μL of each blood sample were precipitated with 100 μL of acetonitrile containing generic internal standards (carbamazepine/telmisartan/verapamil; c=50 ng/mL). The samples were vortexed thoroughly then centrifuged (5 min, 4° C.). The supernatant (80 μL) was transferred to a clean 96-well plate and mixed with 80 μL of water.
The samples were injected (1 to 20 μL) onto suitable analytical columns, using various isocratic methods and flow rates. Mobile phases typically consisting of 0.1% formic acid in water (solvent A) and 0.1% formic acid in acetonitrile (solvent B) with additional modifiers, if needed. Compounds and the internal standards were eluted at various retention times. The HPLC systems were interfaced to mass spectrometers. MS/MS analyses were carried out using electrospray ionization (ESI), typically in the positive ionization mode. Compounds and the internal standards were monitored using multiple reaction monitoring (MRM).
The standard curves employed for sample quantitation ranged over several log units. The lower limit of quantitation (LLOQ) in blood was determined and used as cutoff for the analytical sensitivity. Known amounts of the compounds were spiked into blood to create quality control samples with six known concentrations in singlets. The accuracy of the in vivo blood sample concentration determination was considered acceptable when the intra-assay accuracies obtained for the quality control samples were within 70% to 130% of the expected concentrations. Subsequently, from the time concentration data, pharmacokinetic parameters were calculated by non-compartmental regression analyses using an in house fitting program. […]

Data set [2] deals with GIRK1/4 (Homo sapiens (Human), UniProt P48544+P48549). Kind of data set: GIRK1/4 activity assay (Quattro/IonWorks population patch clamp, inward potassium current). The settings on record: GIRK1/4 HEK293 stable cells; current inhibition normalized to DMSO-only control. In kind it is cell-based. As for the experimental part:
The GIRK1/4 activity of a compound according to the present invention was assessed by the following in vitro method.
• a. External buffer: 10 mM NaCl, 50 mM Na Gluconate, 80 mM K Gluconate, 1.8 mM CaCl2, 1 mM MgCl2, 10 mM HEPES, 10 mM Glucose, pH 7.4; osmolarity 300-310 Osm/L. • b. Internal buffer: 30 mM KCl, 100 mM K Gluconate, 1 mM MgCl2, 10 mM HEPES, 1 mM EGTA, 10 mM NaCl, pH 7.2; osmolarity 284-292 Osm/L. Compounds: • c. Prepare seven-fold compound dilution series (10 mM to 20 uM) in 100% DMSO, in 384-well polypropylene plates. • d. Propafenone (Sigma Aldrich, catalog number P4670) was used as a positive control and DMSO for neutral control • e. Resuspend 1 μl of compounds in DMSO into 66.7 μl external buffer in 384-well polypropylene plate and load into Plate 1 section of Molecular Devices Quattro® Quattro Setup: • f. Load 384-well Population Patch Plate (Molecular Devices #9000-0902) into Quattro • g. Fill Quattro F-soak trough with 20% DMSO and 50% EtOH • h. Fill Quattro buffer trough with external buffer • i. Attach internal buffer flask to Quattro internal buffer tubing • j. Attach PBS (Phosphate Buffered Saline, minus Ca^++ and Mg^++, pH7.4) bottle to F-head & E-head wash on Quattro Antibiotic: • k. Resuspend 5.1-5.8 mg amphotericin B (Sigma Aldrich, catalog number A2411) in 175 μl DMSO • l. Add the resulting solution to 50 mL internal buffer and attach to antibiotic tubing port on Quattro Cells: • m. Use GIRK1/4 HEK293 stable cells (obtained from ChanTest, 14656 Neo Parkway, Cleveland, Ohio 44128) grown to ˜80% confluency in the following cell culture medium: DMEM containing 10% (v/v) Fetal Bovine Serum, Penicillin/Streptomycin (at “IX” concentration from a 100× stock), 0.5 mg/mL G418 and 0.1 mg/mL Zeocin. • n. Detach cells using Detachin (Genlantis, 11011 Torreyana, San Diego, CA 92121), washed with PBS (minus Ca^++ and Mg^++) and resuspend in external buffer (5 mL final volume at 2.0-2.1×10^6 cells/mL) • o. Load into cell trough of Quattro Assay Protocol:
Quattro was controlled using IonWorks v2 software to perform the following steps: • p. Added 3.5 μl cells plus 3.5 μl external buffer to wells of Quattro Patch Plate® • q. Circulated amphotericin B and internal buffer onto cells • r. Applied the following voltage protocol: Pulse 1: 15 mV for 300 milliseconds (ms), followed by Pulse 2: −120 mV for 400 ms, then Pulse 3: −15 mV for 400 ms, and finally Pulse 4: −120 mV to 40 mV over 500 ms (this is a voltage ramp). • s. Measured magnitude of inward potassium current at time point between 1200-1220 ms from start of Pulse 1 (i.e., during the voltage ramp phase). • t. Added 3.5 μl of diluted compounds (or DMSO) to wells and repeated […] (final compound concentrations are 50 uM to 0.1 uM, and each concentration was tested in quadruplicate—i.e., in 4 separate wells). • u. The difference between current magnitude pre vs. post-compound gave a measure of GIRK1/4 inhibition. Data Analysis:
IC50 values were calculated by plotting the percentage of current inhibition (normalized to the DMSO-only control) as a function of compound concentration using standard data analysis software.

Sequence of GIRK1/4 (P48549 whole entry): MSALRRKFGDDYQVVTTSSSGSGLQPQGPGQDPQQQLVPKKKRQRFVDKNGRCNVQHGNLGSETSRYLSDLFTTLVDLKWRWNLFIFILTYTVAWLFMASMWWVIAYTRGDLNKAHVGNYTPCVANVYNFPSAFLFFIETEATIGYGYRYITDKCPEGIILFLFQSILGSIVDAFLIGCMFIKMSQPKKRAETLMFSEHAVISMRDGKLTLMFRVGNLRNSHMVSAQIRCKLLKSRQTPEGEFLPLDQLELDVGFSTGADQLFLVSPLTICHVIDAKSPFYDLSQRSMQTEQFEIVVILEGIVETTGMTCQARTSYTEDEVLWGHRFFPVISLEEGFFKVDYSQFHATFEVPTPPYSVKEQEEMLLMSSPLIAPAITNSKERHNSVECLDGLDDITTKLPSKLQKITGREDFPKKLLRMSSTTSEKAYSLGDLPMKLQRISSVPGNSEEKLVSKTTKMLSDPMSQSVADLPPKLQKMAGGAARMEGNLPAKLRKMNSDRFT
Sequence of GIRK1/4 (P48544 whole entry): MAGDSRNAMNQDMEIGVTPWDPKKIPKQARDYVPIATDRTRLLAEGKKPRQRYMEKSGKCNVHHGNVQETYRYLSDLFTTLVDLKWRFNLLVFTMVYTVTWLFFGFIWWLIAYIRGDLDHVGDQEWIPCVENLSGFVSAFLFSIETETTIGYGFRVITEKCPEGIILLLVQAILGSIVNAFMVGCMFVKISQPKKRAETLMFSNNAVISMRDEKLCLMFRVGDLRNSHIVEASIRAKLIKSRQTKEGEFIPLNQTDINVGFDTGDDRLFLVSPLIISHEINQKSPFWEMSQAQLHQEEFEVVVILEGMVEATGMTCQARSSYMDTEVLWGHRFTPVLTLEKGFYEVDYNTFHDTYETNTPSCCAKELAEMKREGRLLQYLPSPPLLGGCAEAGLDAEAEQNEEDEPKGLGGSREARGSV

For `Cc1cc(=O)c2c(CC(C)S(C)(=O)=O)ncc(Cl)c2n1-c1c(Cl)cc(OCCO)cc1Cl` (single isomer, unassigned) [Example 21, 8-Chloro-1-(2,6-dichloro-4-(2-hydroxyethoxy)phenyl)-2-methyl-5-(2-(methylsulfonyl)propyl)-1,6-naphthyridin-4(1H)-one], in data set [1], the “Rat AUC0-24 h 3 mg/kg” value came to 3200 nMh, the clearance is 10.4 mL/min/kg and the “Rat F” value was 34%. In data set [2], half-maximal inhibition (IC50) was put at 170 nM.
In the case of `Cc1cc(=O)c2c(OCC(=O)NCCO)ncc(Cl)c2n1-c1c(Cl)cc(OCCO)cc1Cl` [Example 2, 2-((8-Chloro-1-(2,6-dichloro-4-(2-hydroxyethoxy)phenyl)-2-methyl-4-oxo-1,4-dihydro-1,6-naphthyridin-5-yl)oxy)-N-(2-hydroxyethyl)acetamide], in data set [1], the “Rat AUC0-24 h 3 mg/kg” value came out at 1288 nMh, the clearance was 23 mL/min/kg and the “Rat F” value worked out at 29%. In data set [2], this compound came in with an IC50 of 220 nM.
As for `CNC(=O)CCOc1ncc(Cl)c2c1c(=O)cc(C)n2-c1c(Cl)cc(OCC(C)(C)O)cc1Cl` [Example 3, 3-((8-Chloro-1-(2,6-dichloro-4-(2-hydroxy-2-methylpropoxy)phenyl)-2-methyl-4-oxo-1,4-dihydro-1,6-naphthyridin-5-yl)oxy)-N-methylpropanamide], in data set [1], the “Rat AUC0-24 h 3 mg/kg” value is reported as 7738 nMh, the clearance turned out to be 5.7 mL/min/kg and the “Rat F” value is reported as 47%. The compound also returned an IC50 in data set [2] of 220 nM.
Turning to `CNC(=O)COc1ncc(Cl)c2c1c(=O)cc(C)n2-c1c(Cl)cc(OCC(C)(C)O)cc1Cl` [Example 4, 2-((8-Chloro-1-(2,6-dichloro-4-(2-hydroxy-2-methylpropoxy)phenyl)-2-methyl-4-oxo-1,4-dihydro-1,6-naphthyridin-5-yl)oxy)-N-methylacetamide], in data set [1], the “Rat AUC0-24 h 3 mg/kg” value amounted to 3674 nMh, the clearance is 5.5 mL/min/kg and the “Rat F” value turned out to be 22%. Further, the midpoint of inhibition in data set [2], the IC50, lay at 160 nM.
The corresponding values for `CNC(=O)COc1ncc(Cl)c2c1c(=O)cc(C)n2-c1c(Cl)cc(OCCO)cc1Cl` [Example 5, 2-((8-Chloro-1-(2,6-dichloro-4-(2-hydroxyethoxy)phenyl)-2-methyl-4-oxo-1,4-dihydro-1,6-naphthyridin-5-yl)oxy)-N-methylacetamide] are 2336 nMh, 14.6 mL/min/kg, 33% and 60 nM.
Compound `CNC(=O)[C@@H](C)COc1ncc(Cl)c2c1c(=O)cc(C)n2-c1c(Cl)cc(OCCO)cc1Cl` [Example 8, (S)-3-((8-Chloro-1-(2,6-dichloro-4-(2-hydroxyethoxy)phenyl)-2-methyl-4-oxo-1,4-dihydro-1,6-naphthyridin-5-yl)oxy)-N,2-dimethylpropanamide] returned an IC50 in data set [2] of 70 nM.
In the case of `CNC(=O)CCOc1ncc(Cl)c2c1c(=O)cc(C)n2-c1c(Cl)cc(OC[C@H](C)O)cc1Cl` [Example 10, (S)-3-((8-Chloro-1-(2,6-dichloro-4-(2-hydroxypropoxy)phenyl)-2-methyl-4-oxo-1,4-dihydro-1,6-naphthyridin-5-yl)oxy)-N-methylpropanamide], half-maximal inhibition in data set [2] (IC50) was put at 330 nM.
Same read-out and setting: the figure for `CNC(=O)C(C)(C)COc1ncc(Cl)c2c1c(=O)cc(C)n2-c1c(Cl)cc(OCCO)cc1Cl` [Example 11, 3-((8-Chloro-1-(2,6-dichloro-4-(2-hydroxyethoxy)phenyl)-2-methyl-4-oxo-1,4-dihydro-1,6-naphthyridin-5-yl)oxy)-N,2,2-trimethylpropanamide] is 160 nM.
`CNC(=O)[C@H](O)COc1ncc(Cl)c2c1c(=O)cc(C)n2-c1c(Cl)cc(OCCO)cc1Cl` [Example 12, (R)-3-((8-Chloro-1-(2,6-dichloro-4-(2-hydroxyethoxy)phenyl)-2-methyl-4-oxo-1,4-dihydro-1,6-naphthyridin-5-yl)oxy)-2-hydroxy-N-methylpropanamide]: the IC50 in data set [2] was found to be 200 nM.
Regarding `CNC(=O)[C@@H](O)COc1ncc(Cl)c2c1c(=O)cc(C)n2-c1c(Cl)cc(OCC(C)(C)O)cc1Cl` [Example 14, (S)-3-((8-chloro-1-(2,6-dichloro-4-(2-hydroxy-2-methylpropoxy)phenyl)-2-methyl-4-oxo-1,4-dihydro-1,6-naphthyridin-5-yl)oxy)-2-hydroxy-N-methylpropanamide], the 50% inhibitory concentration (IC50) in data set [2] amounted to 170 nM. The IC50 values of the last two compounds are within 1.5-fold of each other.
As to `CNC(=O)C(F)(F)COc1ncc(Cl)c2c1c(=O)cc(C)n2-c1c(Cl)cc(OCCO)cc1Cl` [Example 16, 3-((8-Chloro-1-(2,6-dichloro-4-(2-hydroxyethoxy)phenyl)-2-methyl-4-oxo-1,4-dihydro-1,6-naphthyridin-5-yl)oxy)-2,2-difluoro-N-methylpropanamide], the IC50 in data set [2] was 30 nM.
Consider `Cc1cc(=O)c2c(OCCC(N)=O)ncc(Cl)c2n1-c1c(Cl)cc(OCCO)cc1Cl` [Example 18], for which, in data set [1], the “Rat AUC0-24 h 3 mg/kg” value is given as 1702 nMh, the clearance is 38.9 mL/min/kg and the “Rat F” value is 65%.
